Measurements taken from BindingDB's records for doi:10.1016/j.bmc.2005.09.061 (Fujisawa Pharmaceutical, 2006).

What was measured:
[1] = target: Poly [ADP-ribose] polymerase 1 (Homo sapiens, UniProt P09874); experiment: PARP Enzyme Inhibition Assay; conditions: pH 8; 23 °C
Procedure: (§1) To assess the inhibitory activity of novel inhibitors, the PARP enzyme assay was carried out in reaction mixture consisting of activated salmon testes DNA, [adenylate-32P]-NAD, recombinant PARP enzyme, and various concentrations of PARP inhibitors. The reaction mixture was incubated at room temperature for 15 min, and the reaction was terminated by adding trichloroacetic acid. The precipitate was transferred onto GF/B filter. After the filter was washed and dried, the radioactivity was determined by liquid scintillation counting. IC50 values were calculated from the concentration dependence of the inhibition curves by using computer-assisted non-linear regression analyses.

[2] = target: Poly [ADP-ribose] polymerase 2 (Mus musculus, UniProt O88554); experiment: PARP Enzyme Inhibition Assay; conditions: 25 °C
Sequence of Poly [ADP-ribose] polymerase 2 (O88554 whole entry): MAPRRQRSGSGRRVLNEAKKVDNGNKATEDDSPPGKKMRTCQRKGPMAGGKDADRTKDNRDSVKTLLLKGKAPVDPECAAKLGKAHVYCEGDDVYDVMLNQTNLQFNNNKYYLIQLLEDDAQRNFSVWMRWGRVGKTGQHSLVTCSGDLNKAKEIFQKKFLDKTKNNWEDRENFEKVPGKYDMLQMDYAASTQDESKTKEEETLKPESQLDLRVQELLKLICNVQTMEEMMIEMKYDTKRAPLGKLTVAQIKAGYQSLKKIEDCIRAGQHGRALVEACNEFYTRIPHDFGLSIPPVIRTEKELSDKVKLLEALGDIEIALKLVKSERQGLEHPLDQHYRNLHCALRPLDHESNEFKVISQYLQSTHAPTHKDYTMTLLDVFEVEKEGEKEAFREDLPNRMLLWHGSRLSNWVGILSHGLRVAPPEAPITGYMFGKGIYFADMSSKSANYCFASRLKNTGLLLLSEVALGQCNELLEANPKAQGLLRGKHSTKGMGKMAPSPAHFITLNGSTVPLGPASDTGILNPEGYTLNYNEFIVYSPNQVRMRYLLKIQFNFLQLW
Procedure: as §1

Sequence of Poly [ADP-ribose] polymerase 1 (P09874 whole entry): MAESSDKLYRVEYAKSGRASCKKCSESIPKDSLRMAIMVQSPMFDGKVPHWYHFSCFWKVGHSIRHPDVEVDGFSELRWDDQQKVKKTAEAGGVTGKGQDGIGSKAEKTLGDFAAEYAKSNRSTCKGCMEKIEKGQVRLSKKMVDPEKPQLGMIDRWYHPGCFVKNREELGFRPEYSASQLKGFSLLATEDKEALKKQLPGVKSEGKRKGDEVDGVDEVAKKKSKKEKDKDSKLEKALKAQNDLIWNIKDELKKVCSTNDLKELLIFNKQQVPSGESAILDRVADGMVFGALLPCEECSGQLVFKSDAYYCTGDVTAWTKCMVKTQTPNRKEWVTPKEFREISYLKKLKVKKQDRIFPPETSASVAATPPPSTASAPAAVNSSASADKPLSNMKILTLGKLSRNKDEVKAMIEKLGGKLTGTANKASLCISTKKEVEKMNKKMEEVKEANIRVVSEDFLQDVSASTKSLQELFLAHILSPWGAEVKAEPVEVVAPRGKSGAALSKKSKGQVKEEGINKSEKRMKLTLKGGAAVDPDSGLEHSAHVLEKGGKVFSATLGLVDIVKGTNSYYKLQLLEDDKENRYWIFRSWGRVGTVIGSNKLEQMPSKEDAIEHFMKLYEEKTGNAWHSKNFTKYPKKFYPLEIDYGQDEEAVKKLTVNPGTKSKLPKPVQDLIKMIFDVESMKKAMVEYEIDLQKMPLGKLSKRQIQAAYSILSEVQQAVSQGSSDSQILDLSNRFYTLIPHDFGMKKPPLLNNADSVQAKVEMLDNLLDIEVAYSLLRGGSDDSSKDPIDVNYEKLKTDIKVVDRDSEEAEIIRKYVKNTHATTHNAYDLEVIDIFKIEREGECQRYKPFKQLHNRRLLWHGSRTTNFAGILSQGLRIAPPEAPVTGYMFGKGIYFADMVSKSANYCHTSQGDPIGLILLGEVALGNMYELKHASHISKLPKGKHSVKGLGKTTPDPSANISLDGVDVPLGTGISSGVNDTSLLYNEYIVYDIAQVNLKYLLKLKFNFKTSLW

Row | SMILES | IC50 [1] [nM] | IC50 [2] [nM]
1 | O=c1[nH]c(CCCN2CC=C(c3ccccc3)CC2)nc2c(Cl)cccc12 | 23 | 610
2 | O=c1[nH]nc(CCCCN2CC=C(c3ccc(F)cc3)CC2)c2ccccc12 [4-{4-[4-(4-fluorophenyl)-1,2,3,6-tetrahydropyridin-1-yl]butyl}-1,2-dihydrophthalazin-1-one] | 49 | 84
3 | Cc1cccc2c(=O)[nH]c(CCCN3CC=C(c4ccc(F)cc4)CC3)nc12 | 16 | 167
4 | O=c1[nH]c(CCCN2CCN(c3ccc(Cl)cc3)CC2)nc2ccccc12 [2-{3-[4-(4-chlorophenyl)piperazin-1-yl]propyl}-3,4-dihydroquinazolin-4-one] | 11 | 300
5 | NC(=O)c1cccc2ncc(-c3ccccc3)nc12 [3-phenylquinoxaline-5-carboxamide] | 131 | 14
6 | O=c1[nH]nc(CCCCN2CC=C(c3ccccc3)CC2)c2ccccc12 [4-[4-(4-Phenyl-3,6-dihydro-2H-pyridin-1-yl)-butyl]-2H-phthalazin-1-one] | 120 | 90
7 | O=c1[nH]c(=O)n(CCCCC2CC=C(c3ccccc3)CC2)c2cccc(F)c12 (stereo unspecified) [5-fluoro-1-[4-(4-phenylcyclohex-3-en-1-yl)butyl]-1,2,3,4-tetrahydroquinazoline-2,4-dione] | > 1000 | 
8 | O=c1[nH]c(CCCN2CC=C(c3ccccc3)CC2)nc2cccc(Cl)c12 [5-Chloro-2-[3-(4-phenyl-3,6-dihydro-2H-pyridin-1-yl)-propyl]-3H-quinazolin-4-one] | 68 | 630
9 | COc1ccc(-c2cnc3cccc(C(N)=O)c3n2)cc1 | 71 | 8
10 | NC(=O)c1cccc2ncc(-c3ccc(N)cc3)nc12 [3-(4-aminophenyl)quinoxaline-5-carboxamide] | 87 | 9
11 | NC(=O)c1cccc2ncc(-c3ccc(C(F)(F)F)cc3)nc12 | 118 | 11
12 | O=c1[nH]c(CCCN2CC=C(c3ccccc3)CC2)nc2ccccc12 [2-[3-(4-phenyl-1,2,3,6-tetrahydropyridin-1-yl)propyl]-3,4-dihydroquinazolin-4-one] | 21 | 608
13 | NC(=O)c1cccc(N)c1 |  | 9810
14 | N#Cc1ccc(-c2cnc3cccc(C(N)=O)c3n2)cc1 | 101 | 8
15 | NC(=O)c1cccc2ncc(-c3ccc(Cl)cc3)nc12 [3-(4-chlorophenyl)quinoxaline-5-carboxamide] | 33 | 7
16 | N#Cc1ccc(C2=CCN(CCCc3nc4c(Cl)cccc4c(=O)[nH]3)CC2)cc1 | 3 | 87
17 | O=c1[nH]c2ccc(CCCN3CC=C(c4ccccc4)CC3)cc2c2ccccc12 | 82 | 84
18 | O=c1[nH]c(CCCN2CC=C(c3ccc(F)cc3)CC2)nc2c(Cl)cccc12 [8-chloro-2-{3-[4-(4-fluorophenyl)-1,2,3,6-tetrahydropyridin-1-yl]propyl}-3,4-dihydroquinazolin-4-one] |  | 500
19 | Cc1nc2cccc(Cl)c2c(=O)[nH]1 [5-chloro-2-methyl-3,4-dihydroquinazolin-4-one] |  | 660
20 | O=c1[nH]c(=O)n(CCCCN2CC=C(c3ccccc3)CC2)c2ccccc12 [1-[4-(4-phenyl-1,2,3,6-tetrahydropyridin-1-yl)butyl]-1,2,3,4-tetrahydroquinazoline-2,4-dione] | 120 | 70
